Measurements reported in patent US8247211B2, “Glycopeptide antibiotics” (American Cyanamid Company, priority 2001, dated 2012).
In brackets after ≈: the same amount, converted by molar mass.

Legend:
Experiment in all cases: In vitro antibacterial evaluation: minimum inhibitory concentration (MIC), broth dilution method
Format in all cases: cell-based
Enterococcus sp. = tested on: Enterococcus sp.
Procedure, shortened: (§1)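 Values are minimum inhibitory concentrations, meaning the smallest antibiotic concentration that stops growth of the organism. They come from broth dilution in Muller-Hinton II […] per NCCLS guidance (M7-A2), using 5×10^5 CFU/mL and concentrations from 64 to 0.06 μg/mL.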

Staphylococcus sp. = conditions: broth dilution, 18 hours at 35° C.
Procedure, shortened: as §1

Streptococcus sp. = tested on: Streptococcus sp.
Procedure, shortened: as §1

Escherichia coli = tested on: Escherichia coli
Procedure, shortened: as §1

[1] = broth dilution, inoculum 5×10^5 CFU/mL, 18 hours at 35° C.

Structure (SMILES): CC(c1ccccc1)C1NC(=O)CNC(=O)C(CO)NC(=O)C(C(O)C2CNC(=N)N2C2OC(CO)C(O)C(O)C2O)NC(=O)C(C(O)C2CNC(=N)N2)NC(=O)C(Cc2ccc(OC3OC(CO)C(OC4OC(CO)C(O)C5OC(c6ccc(-c7ccsc7)cc6)OC45)C(O)C3O)cc2)NC1=O (stereo not drawn) [Example 164a, Cyclo[glycyl-β-methylphenylalanyl-O-[4-O-[2,3-O-[4-(3-thienyl)benzylidene]hexopyranosyl]-hexopyranosyl]tyrosyl-3-(2-iminoimidazolidin-4-yl)seryl-3-(3-hexopyranosyl-2-iminoimidazolidin-4-yl)serylseryl]]
- MIC Enterococcus avium (GC 4558) (Enterococcus sp.; [1]): 8 µg/mL (≈ 5.46 µM)
- MIC Enterococcus faecalis (ATCC 29212) (Enterococcus sp.; [1]): 16 µg/mL (≈ 10.9 µM)
- MIC Enterococcus faecalis (GC 2242) (Enterococcus sp.; [1]): 16 µg/mL (≈ 10.9 µM)
- MIC Enterococcus faecalis (GC 2691) (Enterococcus sp.; [1]): 16 µg/mL (≈ 10.9 µM)
- MIC Enterococcus faecalis (GC 3059) (Enterococcus sp.; [1]): 16 µg/mL (≈ 10.9 µM)
- MIC Enterococcus faecalis (GC 4552) (Enterococcus sp.; [1]): 16 µg/mL (≈ 10.9 µM)
- MIC Enterococcus faecalis (GC 4553) (Enterococcus sp.; [1]): 16 µg/mL (≈ 10.9 µM)
- MIC Enterococcus faecalis (GC 4554) (Enterococcus sp.; [1]): 16 µg/mL (≈ 10.9 µM)
- MIC Enterococcus faecalis (GC 6189) (Enterococcus sp.; [1]): 16 µg/mL (≈ 10.9 µM)
- MIC Enterococcus faecium (GC 2243) (Enterococcus sp.; [1]): 8 µg/mL (≈ 5.46 µM)
- MIC Enterococcus faecium (GC 4556) (Enterococcus sp.; [1]): 16 µg/mL (≈ 10.9 µM)
- MIC Enterococcus faecium (GC 4557) (Enterococcus sp.; [1]): 4 µg/mL (≈ 2.73 µM)
- MIC Enterococcus faecalis (ATCC 29212) (Enterococcus sp.; strain ATCC 29212): 16 µg/mL (≈ 10.9 µM)
- MIC Enterococcus faecalis (GC 2242) (Enterococcus sp.; strain GC 2242): 16 µg/mL (≈ 10.9 µM)
- MIC Enterococcus faecium (GC 2243) (Enterococcus sp.; strain GC 2243): 8 µg/mL (≈ 5.46 µM)
- MIC Enterococcus faecalis (GC 2691) (Enterococcus sp.; strain GC 2691): 16 µg/mL (≈ 10.9 µM)
- MIC Enterococcus faecalis (GC 3059) (Enterococcus sp.; strain GC 3059): 16 µg/mL (≈ 10.9 µM)
- MIC Enterococcus faecalis (GC 4552) (Enterococcus sp.; strain GC 4552): 16 µg/mL (≈ 10.9 µM)
- MIC Enterococcus faecalis (GC 4553) (Enterococcus sp.; strain GC 4553): 16 µg/mL (≈ 10.9 µM)
- MIC Enterococcus faecalis (GC 4554) (Enterococcus sp.; strain GC 4554): 16 µg/mL (≈ 10.9 µM)
- MIC Enterococcus faecium (GC 4556) (Enterococcus sp.; strain GC 4556): 16 µg/mL (≈ 10.9 µM)
- MIC Enterococcus faecium (GC 4557) (Enterococcus sp.; strain GC 4557): 4 µg/mL (≈ 2.73 µM)
- MIC Enterococcus avium (GC 4558) (Enterococcus sp.; strain GC 4558): 8 µg/mL (≈ 5.46 µM)
- MIC Enterococcus faecalis (GC 6189) (Enterococcus sp.; strain GC 6189): 16 µg/mL (≈ 10.9 µM)
- MIC Coagulase Negative Staphylococcus (GC 4547) (Staphylococcus sp.; 5×10^5 CFU/mL): 8 µg/mL (≈ 5.46 µM)
- MIC Coagulase Negative Staphylococcus (GC 4548) (Staphylococcus sp.; 5×10^5 CFU/mL): 4 µg/mL (≈ 2.73 µM)
- MIC Coagulase Negative Staphylococcus (GC 4549) (Staphylococcus sp.; 5×10^5 CFU/mL): 4 µg/mL (≈ 2.73 µM)
- MIC Coagulase Negative Staphylococcus (GC 4551) (Staphylococcus sp.; 5×10^5 CFU/mL): 8 µg/mL (≈ 5.46 µM)
- MIC Coagulase Negative Staphylococcus (GC 6257) (Staphylococcus sp.; 5×10^5 CFU/mL): 4 µg/mL (≈ 2.73 µM)
- MIC Staphylococcus aureus (ATCC 29213) (Staphylococcus sp.; 5×10^5 CFU/mL): 8 µg/mL (≈ 5.46 µM)
- MIC Staphylococcus aureus (GC 1131) (Staphylococcus sp.; 5×10^5 CFU/mL): 8 µg/mL (≈ 5.46 µM)
- MIC Staphylococcus aureus (GC 3051) (Staphylococcus sp.; 5×10^5 CFU/mL): 8 µg/mL (≈ 5.46 µM)
- MIC Staphylococcus aureus (GC 3053) (Staphylococcus sp.; 5×10^5 CFU/mL): 8 µg/mL (≈ 5.46 µM)
- MIC Staphylococcus aureus (GC 4541) (Staphylococcus sp.; 5×10^5 CFU/mL): 8 µg/mL (≈ 5.46 µM)
- MIC Staphylococcus aureus (GC 4542) (Staphylococcus sp.; 5×10^5 CFU/mL): 16 µg/mL (≈ 10.9 µM)
- MIC Staphylococcus aureus (GC 4544) (Staphylococcus sp.; 5×10^5 CFU/mL): 8 µg/mL (≈ 5.46 µM)
- MIC Staphylococcus aureus (GC 4545) (Staphylococcus sp.; 5×10^5 CFU/mL): 8 µg/mL (≈ 5.46 µM)
- MIC Staphylococcus aureus-SMITH (GC 4543) (Staphylococcus sp.; 5×10^5 CFU/mL): 8 µg/mL (≈ 5.46 µM)
- MIC Staphylococcus haemolyticus (GC 4546) (Staphylococcus sp.; 5×10^5 CFU/mL): 4 µg/mL (≈ 2.73 µM)
- MIC Staphylococcus aureus (ATCC 29213) (Staphylococcus sp.; strain ATCC 29213): 8 µg/mL (≈ 5.46 µM)
- MIC Staphylococcus aureus (GC 1131) (Staphylococcus sp.; strain GC 1131): 8 µg/mL (≈ 5.46 µM)
- MIC Staphylococcus aureus (GC 3051) (Staphylococcus sp.; strain GC 3051): 8 µg/mL (≈ 5.46 µM)
- MIC Staphylococcus aureus (GC 3053) (Staphylococcus sp.; strain GC 3053): 8 µg/mL (≈ 5.46 µM)
- MIC Staphylococcus aureus (GC 4541) (Staphylococcus sp.; strain GC 4541): 8 µg/mL (≈ 5.46 µM)
- MIC Staphylococcus aureus (GC 4542) (Staphylococcus sp.; strain GC 4542): 16 µg/mL (≈ 10.9 µM)
- MIC Staphylococcus aureus-SMITH (GC 4543) (Staphylococcus sp.; strain GC 4543): 8 µg/mL (≈ 5.46 µM)
- MIC Staphylococcus aureus (GC 4544) (Staphylococcus sp.; strain GC 4544): 8 µg/mL (≈ 5.46 µM)
- MIC Staphylococcus aureus (GC 4545) (Staphylococcus sp.; strain GC 4545): 8 µg/mL (≈ 5.46 µM)
- MIC Staphylococcus haemolyticus (GC 4546) (Staphylococcus sp.; strain GC 4546): 4 µg/mL (≈ 2.73 µM)
- MIC Coagulase Negative Staphylococcus (GC 4547) (Staphylococcus sp.; strain GC 4547): 8 µg/mL (≈ 5.46 µM)
- MIC Coagulase Negative Staphylococcus (GC 4548) (Staphylococcus sp.; strain GC 4548): 4 µg/mL (≈ 2.73 µM)
- MIC Coagulase Negative Staphylococcus (GC 4549) (Staphylococcus sp.; strain GC 4549): 4 µg/mL (≈ 2.73 µM)
- MIC Coagulase Negative Staphylococcus (GC 4551) (Staphylococcus sp.; strain GC 4551): 8 µg/mL (≈ 5.46 µM)
- MIC Coagulase Negative Staphylococcus (GC 6257) (Staphylococcus sp.; strain GC 6257): 4 µg/mL (≈ 2.73 µM)
- MIC Streptococcus agalactiae (GC 4564) (Streptococcus sp.; [1]): 1 µg/mL (≈ 0.682 µM)
- MIC Streptococcus pneumoniae (ATCC 6301) (Streptococcus sp.; [1]): 1 µg/mL (≈ 0.682 µM)
- MIC Streptococcus pneumoniae (GC 1894) (Streptococcus sp.; [1]): 0.25 µg/mL (≈ 0.171 µM)
- MIC Streptococcus pneumoniae (GC 4565) (Streptococcus sp.; [1]): 1 µg/mL (≈ 0.682 µM)
- MIC Streptococcus pyogenes (GC 4563) (Streptococcus sp.; [1]): 0.5 µg/mL (≈ 0.341 µM)
- MIC Streptococcus pneumoniae (ATCC 6301) (Streptococcus sp.; strain ATCC 6301): 1 µg/mL (≈ 0.682 µM)
- MIC Streptococcus pneumoniae (GC 1894) (Streptococcus sp.; strain GC 1894): 0.25 µg/mL (≈ 0.171 µM)
- MIC Streptococcus pyogenes (GC 4563) (Streptococcus sp.; strain GC 4563): 0.5 µg/mL (≈ 0.341 µM)
- MIC Streptococcus agalactiae (GC 4564) (Streptococcus sp.; strain GC 4564): 1 µg/mL (≈ 0.682 µM)
- MIC Streptococcus pneumoniae (GC 4565) (Streptococcus sp.; strain GC 4565): 1 µg/mL (≈ 0.682 µM)
- MIC Escherichia coli (ATCC 25922) (Escherichia coli; strain ATCC 25922): 32 µg/mL (≈ 21.8 µM)
- MIC Escherichia coli (GC 4559) (Escherichia coli; strain GC 4559): 32 µg/mL (≈ 21.8 µM)
- MIC Escherichi coli (GC 4560) (Escherichia coli; strain GC 4560): 8 µg/mL (≈ 5.46 µM)
